ChEMBL document CHEMBL3870340, “Cytotoxic activity, apoptosis induction and structure-activity relationship of 8-OR-2-aryl-3,4-dihydroisoquinolin-2-ium salts as promising anticancer agents” (Bioorg Med Chem Lett, 2017)
Calls of active or inactive are those of the source. The calls are words filed in the database; no cut-off is given here.

What was measured:
[1] = Cytotoxicity against human NB4 cells assessed as decrease in cell viability after 48 hrs by MTT assay; assay type: functional, cell-based; conditions: NB-4, 48 h
[2] = Cytotoxicity against human MKN45 cells assessed as decrease in cell viability after 48 hrs by MTT assay; assay type: functional, cell-based; conditions: MKN-45, 48 h
[3] = Antiproliferative activity against human MKN45 cells at 20 uM after 48 hrs by MTT assay relative to control; assay type: functional; conditions: MKN-45, 48 h, read-out: GI
[4] = Antiproliferative activity against human NB4 cells at 5 uM after 48 hrs by MTT assay relative to control; assay type: functional; conditions: NB-4, 48 h, read-out: GI
[5] = Cytotoxicity against primary goat fetal fibroblast assessed as decrease in cell viability after 48 hrs by MTT assay; assay type: toxicity; conditions: goat (Capra hircus), primary goat fetal fibroblasts
[6] = Cytotoxicity against primary porcine fetal kidney cells assessed as decrease in cell viability after 48 hrs by MTT assay; assay type: toxicity, cell-based; conditions: pig (Sus scrofa)
MKN-45 [7] = assay: Induction of morphological changes in human MKN45 cells assessed as cell shrinkage at 0.41 uM after 48 hrs by acridine orange/ethidium bromide staining based fluorescence microscopy; assay type: functional
MKN-45 [8] = assay: Induction of morphological changes in human MKN45 cells assessed as pyknosis in early apoptotic events at 0.41 uM after 48 hrs by acridine orange/ethidium bromide staining based fluorescence microscopy; assay type: functional, cell-based
MKN-45 [9] = assay: Induction of morphological changes in human MKN45 cells assessed as change in cytomembrane permeability at 0.41 uM after 48 hrs by acridine orange/ethidium bromide staining based fluorescence microscopy; assay type: functional, cell-based
MKN-45 [10] = assay: Induction of morphological changes in human MKN45 cells assessed as condensation of cell nuclei and chromatins at 0.41 uM after 48 hrs by acridine orange/ethidium bromide staining based fluorescence microscopy; assay type: functional
MKN-45 [11] = assay: Induction of morphological changes in human MKN45 cells assessed as apoptotic cells at 2.03 uM after 48 hrs by acridine orange/ethidium bromide staining based fluorescence microscopy; assay type: functional, cell-based
MKN-45 [12] = assay: Induction of morphological changes in human MKN45 cells assessed as late apoptotic cells at 10.1 uM after 48 hrs by acridine orange/ethidium bromide staining based fluorescence microscopy; assay type: functional, cell-based
MKN-45 [13] = assay: Induction of apoptosis in human MKN45 cells after 48 hrs by acridine orange/ethidium bromide staining based fluorescence microscopy; assay type: functional, cell-based
MKN-45 [14] = assay: Induction of apoptosis in human MKN45 cells assessed as viable cells at 2.03 uM after 48 hrs by annexin V/PI double staining based flow cytometry (reference value: 99.8%); assay type: functional; conditions: MKN-45, 48 h, read-out: Activity
MKN-45 [15] = assay: Induction of apoptosis in human MKN45 cells assessed as early apoptotic cells at 2.03 uM after 48 hrs by annexin V/PI double staining based flow cytometry (reference value: 0.1%); assay type: functional
MKN-45 [16] = assay: Induction of apoptosis in human MKN45 cells assessed as late apoptotic cells at 2.03 uM after 48 hrs by annexin V/PI double staining based flow cytometry (reference value: 0%); assay type: functional
MKN-45 [17] = assay: Induction of apoptosis in human MKN45 cells assessed as necrotic cells at 2.03 uM after 48 hrs by annexin V/PI double staining based flow cytometry (reference value: 0.1%); assay type: functional
MKN-45 [18] = assay: Induction of apoptosis in human MKN45 cells assessed as viable cells at 10.1 uM after 48 hrs by annexin V/PI double staining based flow cytometry (reference value: 99.8%); assay type: functional; conditions: MKN-45, 48 h, read-out: Activity
MKN-45 [19] = assay: Induction of apoptosis in human MKN45 cells assessed as early apoptotic cells at 10.1 uM after 48 hrs by annexin V/PI double staining based flow cytometry (reference value: 0.1%); assay type: functional
MKN-45 [20] = assay: Induction of apoptosis in human MKN45 cells assessed as late apoptotic cells at 10.1 uM after 48 hrs by annexin V/PI double staining based flow cytometry (reference value: 0%); assay type: functional
MKN-45 [21] = assay: Induction of apoptosis in human MKN45 cells assessed as necrotic cells at 10.1 uM after 48 hrs by annexin V/PI double staining based flow cytometry (reference value: 0.1%); assay type: functional
NB-4 [22] = assay: Induction of apoptosis in human NB4 cells assessed as viable cells at 2.30 uM after 48 hrs by annexin V/PI double staining based flow cytometry (reference value: 96.4%); assay type: functional; conditions: NB-4, 48 h, read-out: Activity
NB-4 [23] = assay: Induction of apoptosis in human NB4 cells assessed as early apoptotic cells at 2.30 uM after 48 hrs by annexin V/PI double staining based flow cytometry (reference value: 2.3%); assay type: functional
NB-4 [24] = assay: Induction of apoptosis in human NB4 cells assessed as late apoptotic cells at 2.30 uM after 48 hrs by annexin V/PI double staining based flow cytometry (reference value: 0.7%); assay type: functional
NB-4 [25] = assay: Induction of apoptosis in human NB4 cells assessed as necrotic cells at 2.30 uM after 48 hrs by annexin V/PI double staining based flow cytometry (reference value: 0.6%); assay type: functional
NB-4 [26] = assay: Induction of apoptosis in human NB4 cells assessed as viable cells at 11.5 uM after 48 hrs by annexin V/PI double staining based flow cytometry (reference value: 96.4%); assay type: functional; conditions: NB-4, 48 h, read-out: Activity
NB-4 [27] = assay: Induction of apoptosis in human NB4 cells assessed as early apoptotic cells at 11.5 uM after 48 hrs by annexin V/PI double staining based flow cytometry (reference value: 2.3%); assay type: functional
NB-4 [28] = assay: Induction of apoptosis in human NB4 cells assessed as late apoptotic cells at 11.5 uM after 48 hrs by annexin V/PI double staining based flow cytometry (reference value: 0.7%); assay type: functional
NB-4 [29] = assay: Induction of apoptosis in human NB4 cells assessed as necrotic cells at 11.5 uM after 48 hrs by annexin V/PI double staining based flow cytometry (reference value: 0.6%); assay type: functional
NB-4 [30] = assay: Induction of apoptosis in human NB4 cells after 48 hrs by annexin V/PI double staining based flow cytometry; assay type: functional, cell-based
MKN-45 [31] = assay: Induction of apoptosis in human MKN45 cells after 48 hrs by annexin V/PI double staining based flow cytometry; assay type: functional, cell-based
NB-4 [32] = assay: Induction of morphological changes in human NB4 cells assessed as apoptotic features at 0.46 to 11.5 uM after 48 hrs by acridine orange/ethidium bromide staining based fluorescence microscopy; assay type: functional, cell-based

## COc1cccc2c1C=[N+](c1ccccc1I)CC2.[Br-]
[1]
  IC50: 2.3 µM
[2]
  IC50: 2.03 µM
[3]
  inhibition of growth at 20 µM: 90.9%
[4]
  inhibition of growth at 5 µM: 49.7%
[5]
  IC50 at 48 h: 3.51 µM
[6]
  IC50 at 48 h: 2.41 µM
MKN-45 [7]
  Activity: Active
MKN-45 [8]
  Activity: Active
MKN-45 [9]
  Activity: Active
MKN-45 [10]
  Activity: Active
MKN-45 [11]
  Activity: Active
MKN-45 [12]
  Activity: Active
MKN-45 [13]
  Activity: Dose-dependent effect
MKN-45 [14]
  viability at 2.03 µM: 82.2%
MKN-45 [15]
  Activity: 12.8%
MKN-45 [16]
  Activity: 4.6%
MKN-45 [17]
  Activity: 0.4%
MKN-45 [18]
  viability at 10.1 µM: 46%
MKN-45 [19]
  Activity: 20.1%
MKN-45 [20]
  Activity: 32%
MKN-45 [21]
  Activity: 1.9%
NB-4 [22]
  viability at 2.3 µM: 90.1%
NB-4 [23]
  Activity: 7.7%
NB-4 [24]
  Activity: 2.2%
NB-4 [25]
  Activity: 0%
NB-4 [26]
  viability at 11.5 µM: 77.9%
NB-4 [27]
  Activity: 14.7%
NB-4 [28]
  Activity: 7.1%
NB-4 [29]
  Activity: 0.3%
NB-4 [30]
  Activity: Dose-dependent effect
MKN-45 [31]
  Activity: Dose-dependent effect
NB-4 [32]
  Activity: Active

## COc1cccc2c1C=[N+](c1ccc(Br)cc1Br)CC2
[1]
  IC50: 2.46 µM
[2]
  IC50: 4.53 µM
[3]
  inhibition of growth at 20 µM: 51.9%
[4]
  inhibition of growth at 5 µM: 61.4%

## COc1cccc2c1C=[N+](c1ccccc1C(F)(F)F)CC2
[1]
  IC50: 3.06 µM
[2]
  IC50: 2.92 µM
[3]
  inhibition of growth at 20 µM: 85%
[4]
  inhibition of growth at 5 µM: 59.3%

## COc1cccc2c1C=[N+](c1ccccc1F)CC2
[1]
  IC50: 4.55 µM
[2]
  IC50: 6.64 µM
[3]
  inhibition of growth at 20 µM: 67.5%
[4]
  inhibition of growth at 5 µM: 42%

## COc1cccc2c1C=[N+](c1ccc(Br)cc1)CC2
[1]
  IC50: 6.12 µM
[2]
  IC50: 11 µM
[3]
  inhibition of growth at 20 µM: 96.8%
[4]
  inhibition of growth at 5 µM: 59.4%

## COc1cccc2c1C=[N+](c1ccc(Cl)cc1Cl)CC2
[1]
  IC50: 1.99 µM
[2]
  IC50: 3.55 µM
[3]
  inhibition of growth at 20 µM: 88.2%
[4]
  inhibition of growth at 5 µM: 54.7%

## COc1cccc2c1C=[N+](c1cccc(F)c1)CC2
[1]
  IC50: 18.8 µM
[2]
  IC50: 11.3 µM
[3]
  inhibition of growth at 20 µM: 80.6%
[4]
  inhibition of growth at 5 µM: 37.6%

## COc1cccc2c1C=[N+](c1cccc(C#N)c1)CC2
[1]
  IC50: 3.66 µM
[2]
  IC50: 7.13 µM
[3]
  inhibition of growth at 20 µM: 83.4%
[4]
  inhibition of growth at 5 µM: 39.6%

## COc1cccc2c1C=[N+](c1cccc(Cl)c1)CC2
[1]
  IC50: 22.4 µM
[2]
  IC50: 9.99 µM
[3]
  inhibition of growth at 20 µM: 73.3%
[4]
  inhibition of growth at 5 µM: 35.1%

## COc1cccc2c1C=[N+](c1ccccc1C#N)CC2
[1]
  IC50: 6.97 µM
[2]
  IC50: 4.61 µM
[3]
  inhibition of growth at 20 µM: 51.1%
[4]
  inhibition of growth at 5 µM: 30.4%

## COc1cccc2c1C=[N+](c1ccc(C(F)(F)F)cc1)CC2
[1]
  IC50: 2.58 µM
[2]
  IC50: 7.07 µM
[3]
  inhibition of growth at 20 µM: 83.4%
[4]
  inhibition of growth at 5 µM: 53.3%

## COc1cccc2c1C=[N+](c1cccc(I)c1)CC2
[1]
  IC50: 1.67 µM
[2]
  IC50: 11.4 µM
[3]
  inhibition of growth at 20 µM: 73%
[4]
  inhibition of growth at 5 µM: 45.3%
[5]
  IC50 at 48 h: 2.67 µM
[6]
  IC50 at 48 h: 4.57 µM

## COc1ccc2c(c[n+](C)c3c4cc5c(cc4ccc23)OCO5)c1OC [CHELERYTHRINE]
[1]
  IC50: 1.49 µM
[2]
  IC50: 12.7 µM
[3]
  inhibition of growth at 20 µM: 92.7%
[4]
  inhibition of growth at 5 µM: 88.4%

## COc1cccc2c1C=[N+](c1ccc(I)cc1)CC2
[1]
  IC50: 8.59 µM
[2]
  IC50: 4.26 µM
[3]
  inhibition of growth at 20 µM: 71.1%
[4]
  inhibition of growth at 5 µM: 51.8%

## COc1cccc2c1C=[N+](c1ccc(Br)cc1F)CC2
[1]
  IC50: 3.62 µM
[2]
  IC50: 6.95 µM
[3]
  inhibition of growth at 20 µM: 69.2%
[4]
  inhibition of growth at 5 µM: 56.9%
